Two compounds from patent US8921273B2, “Substituted pyridazines having herbicidal action” (BASF SE, priority 2010, dated 2014) can be followed below.

What all share (assay): greenhouse herbicidal activity, post-emergence treatment
What all share (conditions): application rate 0.5 kg/ha, scale from 0 to 100

One experiment deals with CHEAL. It counts as in vivo, Chenopodium album. An excerpt: (§1) The seeds of the test plants were sown separately for each species. For the post-emergence treatment, the test plants were first grown to a height of 3 to 15 cm, depending on the plant habit, and only then treated with the active ingredients which had been suspended or emulsified in water. For this purpose, the test plants were either sown directly and grown in the same containers, or they were first grown separately as seedlings and transplanted into the test containers a few days prior to treatment. Depending on the species, the plants were kept at 10-25° C. or 20-35° C. The test period extended over 2 to 4 weeks. During this time, the plants were tended, and their response to the individual treatments was evaluated. Evaluation was carried out using a scale from 0 to 100. 100 means no emergence of the plants, or complete destruction of at least the aerial moieties, and 0 means no damage, or normal course of growth. A good herbicidal activity is given at values of at least 70 and a very good herbicidal activity is given at values of at least 85. The plants used in the greenhouse experiments belonged to the following species: [table]

The test system of the next experiment is ECHCG. It counts as in vivo, Echinochloa crus-galli.
Excerpt: as §1

In the next experiment the test system is AMARE. It counts as in vivo, Amaranthus retroflexus.
Excerpt: as §1

The subject of a further experiment is GALAP. It counts as in vivo, Galium aparine.
Excerpt: as §1

`O=c1c(-c2cc(Cl)cc(N3CCOCC3)c2C(F)(F)F)c(O)c2nccnc2n1CC(F)F` [I-1, 7-[5-chloro-3-morpholino-2-(trifluoromethyl)phenyl]-5-(2,2-difluoroethyl)-8-hydroxy-pyrido[2,3-b]pyrazin-6-one]: the “herbicidal activity against CHEAL” value in the experiment with CHEAL is listed as “very good herbicidal activity (a very good herbicidal activity is given at values of at least 85)”. The “herbicidal activity against ECHCG” value with ECHCG is listed as “very good herbicidal activity (a very good herbicidal activity is given at values of at least 85)”.

Consider `O=c1c(-c2cccc(C3=NOCC3)c2C(F)(F)F)c(O)c2nccnc2n1CC(F)F` [I-2, 5-(2,2-difluoroethyl)-7-[3-(4,5-dihydroisoxazol-3-yl)-2-(trifluoromethyl)phenyl]-8-hydroxy-pyrido[2,3-b]pyrazin-6-one], for which the “herbicidal activity against AMARE” value in the experiment with AMARE is listed as “very good herbicidal activity (a very good herbicidal activity is given at values of at least 85)”. For the same compound, the “herbicidal activity against GALAP” value in the experiment on GALAP is listed as “very good herbicidal activity (a very good herbicidal activity is given at values of at least 85)”.
